In PubChem BioAssay AID328 (DTP/NCI, 2004) one finds T/C data, which are given here for twelve compounds.

This assay has as its system BDF1 mice, P388 leukemia ip, median survival T/C. As to the kind of experiment: NCI In Vivo Anticancer Drug Screen. Data for tumor model P388 Leukemia (intraperitoneal) in B6D2F1 (BDF1) mice. To be noted: endpoint: median survival time, higher = longer survival. Here is the method:
The antitumor activity of compounds was measured in mice bearing transplantable tumors. Survival or tumor size were measured and the results are expressed as the measurement made in the treated group (T) divided by the measurement made in the vehicle treated control group (C). The tumor model used in this assay is P388 Leukemia (intraperitoneal) in B6D2F1 (BDF1) mice

[1] abbreviates: dose: 25.0 mg/kg/injection, schedule: Q04DX003 (ip), vehicle: saline.
Setting [2] is: dose: 50.0 mg/kg/injection, schedule: Q04DX003 (ip), vehicle: saline.
The mark [3] stands for this setting: dose: 50.0 mg/kg/injection, schedule: Q01DX009 (ip), vehicle: saline with Tween-80.
Where [4] appears, read: dose: 100.0 mg/kg/injection, schedule: Q04DX003 (ip), vehicle: Klucel (hydroxypropylcellulose) (HPC).
The mark [5] stands for this setting: dose: 200.0 mg/kg/injection, schedule: Q04DX003 (ip), vehicle: Klucel (hydroxypropylcellulose) (HPC).

Where “and” joins values, the source holds several entries; their conditions need not be identical. Equal entries are not always repeated. Inconclusive results and toxic doses are left out.

Take `CC(=O)NC1(C(=O)O)CSSC1`: the T/C is 107 % of control (dose: 12.5 mg/kg/injection, schedule: Q01DX005 (ip), vehicle: saline); 106 % of control (dose: 25.0 mg/kg/injection, schedule: Q01DX005 (ip), vehicle: saline); 91 % of control under setting [1]; 104 % of control (dose: 50.0 mg/kg/injection, schedule: Q01DX005 (ip), vehicle: saline); 97 % of control under setting [2]; 100 % of control (dose: 100.0 mg/kg/injection, schedule: Q01DX005 (ip), vehicle: saline). In addition, the T/C runs as follows: (dose: 100.0 mg/kg/injection, schedule: Q04DX003 (ip), vehicle: saline) 118 % of control; (dose: 200.0 mg/kg/injection, schedule: Q01DX005 (ip), vehicle: saline) 104 % of control; (dose: 200.0 mg/kg/injection, schedule: Q04DX003 (ip), vehicle: saline) 114 % of control; (dose: 400.0 mg/kg/injection, schedule: Q01DX005 (ip), vehicle: saline) 97 % of control; (dose: 400.0 mg/kg/injection, schedule: Q04DX003 (ip), vehicle: saline) 123 % of control.
With `[NH-]C(CC(N)=O)C(=O)O.[NH-]C(CC(N)=O)C(=O)O.[Ni+2]` (centres undefined), the T/C reads like this: (dose: 3.12 mg/kg/injection, schedule: Q01DX009 (ip), vehicle: water) 88 % of control; (dose: 6.25 mg/kg/injection, schedule: Q01DX009 (ip), vehicle: water) 100 % of control; (dose: 12.5 mg/kg/injection, schedule: Q01DX009 (ip), vehicle: water) 94 % of control.
On to `N=c1ccc2nc3ccc(N)cc3sc-2c1`, for which the T/C by setting is: under setting [1], 100 % of control; under setting [2], 109 % of control.
With `O=C(CBr)c1cccc(OC(=O)c2ccccc2)c1`, the T/C by setting is: (dose: 25.0 mg/kg/injection, schedule: Q04DX003 (ip), vehicle: Klucel (hydroxypropylcellulose) (HPC)) 96 % of control; (dose: 50.0 mg/kg/injection, schedule: Q04DX003 (ip), vehicle: Klucel (hydroxypropylcellulose) (HPC)) 88 % of control.
As to `NC(=S)/N=C\C(CC(O)C(O)C(O)CO)=N\NC(N)=S` (centres undefined), the T/C by setting is: (dose: 6.25 mg/kg/injection, schedule: Q01DX009 (ip), vehicle: saline with Tween-80) 88 % of control and 97 % of control and 100 % of control; (dose: 12.5 mg/kg/injection, schedule: Q01DX009 (ip), vehicle: saline with Tween-80) 99 % of control and 100 % of control and 108 % of control; under setting [3], 97 % of control and 115 % of control.
Take `C/C(CC(=O)O)=C(\C)C(=O)O`: the T/C was 100 % of control (dose: 25.0 mg/kg/injection, schedule: Q01DX009 (ip), vehicle: water); 100 % of control (dose: 50.0 mg/kg/injection, schedule: Q01DX009 (ip), vehicle: water); 96 % of control (dose: 100.0 mg/kg/injection, schedule: Q01DX001 (ip), vehicle: saline); 97 % of control and 103 % of control (dose: 100.0 mg/kg/injection, schedule: Q01DX009 (ip), vehicle: water); 108 % of control (dose: 100.0 mg/kg/injection, schedule: Q04DX003 (ip), vehicle: water); 100 % of control (dose: 200.0 mg/kg/injection, schedule: Q01DX001 (ip), vehicle: saline). The T/C (dose: 200.0 mg/kg/injection, schedule: Q01DX009 (ip), vehicle: water) was 112 % of control; the T/C (dose: 400.0 mg/kg/injection, schedule: Q01DX001 (ip), vehicle: saline) was 100 % of control; the T/C (dose: 400.0 mg/kg/injection, schedule: Q01DX009 (ip), vehicle: water) was 105 % of control.
Turning to `CC(C(=O)c1cccs1)C(O)(C(F)(F)F)C(F)(F)F` (centres undefined), the T/C is 91 % of control under setting [4] and 91 % of control under setting [5].
In the case of `CNC(=N)c1ccc(NC(=N)c2ccc(NC(=N)c3ccc(NC(=O)Nc4ccc(C#N)cc4)cc3)cc2)cc1`, the T/C (dose: 3.0 mg/kg/injection, schedule: Q04DX003 (ip), vehicle: saline with Tween-80) was 123 % of control; the T/C (dose: 14.0 mg/kg/injection, schedule: Q04DX003 (ip), vehicle: saline with Tween-80) was 163 % of control; the T/C (dose: 16.0 mg/kg/injection, schedule: Q01DX009 (ip), vehicle: saline with Tween-80) was 157 % of control; the T/C (dose: 24.0 mg/kg/injection, schedule: Q01DX009 (ip), vehicle: saline with Tween-80) is 173 % of control and 200 % of control; the T/C (dose: 33.0 mg/kg/injection, schedule: Q04DX003 (ip), vehicle: saline with Tween-80) is 250 % of control and 168 % of control and 200 % of control; the T/C (dose: 37.0 mg/kg/injection, schedule: Q01DX009 (ip), vehicle: saline with Tween-80) was 230 % of control. Moreover, the T/C (dose: 37.5 mg/kg/injection, schedule: Q01DX009 (ip), vehicle: saline with Tween-80) was 153 % of control; the T/C under setting [3] was 103 % of control; the T/C (dose: 50.0 mg/kg/injection, schedule: Q04DX003 (ip), vehicle: saline with Tween-80) is 250 % of control and 186 % of control; the T/C (dose: 75.0 mg/kg/injection, schedule: Q04DX003 (ip), vehicle: saline with Tween-80) was 250 % of control and 172 % of control; the T/C (dose: 112.0 mg/kg/injection, schedule: Q04DX003 (ip), vehicle: saline with Tween-80) is 216 % of control.
With `COC(=O)C1=C(C)NC(C)=C(C(=O)OC)C1C(C)Cl` (centres undefined), the T/C by setting is: under setting [3], 118 % of control; (dose: 100.0 mg/kg/injection, schedule: Q01DX009 (ip), vehicle: saline with Tween-80) 109 % of control.
Turning to `NC(=O)c1cn[nH]c1N`, the T/C is 95 % of control (dose: 12.5 mg/kg/injection, schedule: Q01DX009 (ip), vehicle: Klucel (hydroxypropylcellulose) (HPC)); 87 % of control (dose: 25.0 mg/kg/injection, schedule: Q01DX009 (ip), vehicle: Klucel (hydroxypropylcellulose) (HPC)); 91 % of control (dose: 50.0 mg/kg/injection, schedule: Q01DX009 (ip), vehicle: Klucel (hydroxypropylcellulose) (HPC)); 104 % of control under setting [4]; 100 % of control under setting [5]; 113 % of control (dose: 400.0 mg/kg/injection, schedule: Q04DX003 (ip), vehicle: Klucel (hydroxypropylcellulose) (HPC)).
As to `c1ccc(SC23CC4CC(CC(C4)C2)C3)nc1`, the T/C by setting is: (dose: 100.0 mg/kg/injection, schedule: Q01DX001 (ip), vehicle: Klucel (hydroxypropylcellulose) (HPC)) 100 % of control; (dose: 200.0 mg/kg/injection, schedule: Q01DX001 (ip), vehicle: Klucel (hydroxypropylcellulose) (HPC)) 90 % of control; (dose: 400.0 mg/kg/injection, schedule: Q01DX001 (ip), vehicle: Klucel (hydroxypropylcellulose) (HPC)) 100 % of control.
Turning to `Cc1c2ccncc2c(C)c2c1[nH]c1ccccc12`, the T/C is 163 % of control (dose: 10.0 mg/kg/injection, schedule: Q01DX010 (ip), vehicle: saline); 117 % of control (dose: 14.4 mg/kg/injection, schedule: Q04DX003 (ip), vehicle: clinical formulation); 175 % of control (dose: 15.0 mg/kg/injection, schedule: Q01DX009 (ip), vehicle: water); 166 % of control (dose: 15.0 mg/kg/injection, schedule: Q04DX003 (ip), vehicle: water); 159 % of control and 179 % of control (dose: 20.0 mg/kg/injection, schedule: Q01DX010 (ip), vehicle: saline); 172 % of control and 176 % of control (dose: 21.6 mg/kg/injection, schedule: Q04DX003 (ip), vehicle: water). The T/C by setting is: (dose: 24.0 mg/kg/injection, schedule: Q04DX003 (ip), vehicle: clinical formulation) 184 % of control; (dose: 30.0 mg/kg/injection, schedule: Q04DX003 (ip), vehicle: water) 208 % of control; (dose: 36.0 mg/kg/injection, schedule: Q04DX003 (ip), vehicle: water) 235 % of control and 215 % of control; (dose: 40.0 mg/kg/injection, schedule: Q01DX010 (ip), vehicle: saline) 150 % of control; (dose: 40.0 mg/kg/injection, schedule: Q04DX003 (ip), vehicle: clinical formulation) 208 % of control; (dose: 100.0 mg/kg/injection, schedule: Q04DX002 (ip), vehicle: Klucel (hydroxypropylcellulose) (HPC)) 200 % of control. For the same compound, the T/C (dose: 120.0 mg/kg/injection, schedule: Q04DX003 (ip), vehicle: water) was 100 % of control; the T/C (dose: 200.0 mg/kg/injection, schedule: Q04DX002 (ip), vehicle: Klucel (hydroxypropylcellulose) (HPC)) is 190 % of control; the T/C (dose: 400.0 mg/kg/injection, schedule: Q04DX002 (ip), vehicle: Klucel (hydroxypropylcellulose) (HPC)) was 90 % of control.
